Measured values taken from PMC5678291, “Molecular Mechanism of Enzymatic Chlorite Detoxification: Insights from Structural and Kinetic Studies” (ACS Catalysis, 2017).

Assays:
CCld = target: T1, CCld (Cyanothece sp. PCC 7425, UniProt B8HNS6); assay: UV-vis titration; assay type: binding; settings: read-out: dissociation constant
T1 construct: gene Cyan7425_1434

Arg127 = Arg127 (UniProt position 127, LPGVARRLLHC); assay: neutron; settings: 293 K; 0.15 M MgSO4; 0.1 M glycine-NaOH pH 9.0, 0.15 M MgSO4, 30% PEG 3350, 5% glycerol; Ferric CCld crystal, hydroxide (OD-) bound to the haem iron, Arg127 in the 'out' conformation

T1 sequence (B8HNS6 entry or part of it): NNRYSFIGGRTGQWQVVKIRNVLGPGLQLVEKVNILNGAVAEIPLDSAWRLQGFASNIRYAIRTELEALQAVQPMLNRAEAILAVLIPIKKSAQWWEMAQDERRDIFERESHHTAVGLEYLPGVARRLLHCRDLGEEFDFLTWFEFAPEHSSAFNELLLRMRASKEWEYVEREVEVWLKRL

| Molecule | Kd (CCld) [mM] | pKa (Arg127) |
| --- | --- | --- |
| F [F^–, fluoride] | 12.6 | – |
| N#CS [SCN^–, thiocyanate] | 0.074 | – |
| Chlorite dismutase (CCld) (Cyanothece sp. PCC7425) | – | >9.0 (protonated at pH 9.0) |
